Earlier results in patent publication US11553715B2, “Synthesis and formulation of lignin derived compounds as treatment of plant diseases” (University of Kentucky Research Foundation, priority 2019, dated 2023).

Experiments:
[1] = test system: yeast
[2] = test system: bacteria

Compound: COc1cc(C=O)ccc1O [Vanillin]
- antimicrobial concentration as a food preservative [1]: 0.76 mg/mL
- antimicrobial concentration as a food preservative [2]: 1.5 mg/mL
